Test systems include DLD-1 colon; DMS 273 small cell lung; HOP-18 NSCLC; KM20L2 colon; M19-MEL melanoma; RXF-631 renal; SNB-78 CNS; XF 498 CNS; DMS 114 small cell lung.
Assay in all cases: growth of human tumour cells (NCI), 48 h

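Protocol summary: plate cells (96-well), add compound at 5 concentrations, incubate 48 h, interpolate endpoints linearly. GI50 marks 50% less growth. Definition used: TGI = concentration required for complete inhibition of growth.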

Regarding `CC(=O)O[C@H]1C=CC23OC(=O)[C@]1(C)[C@H]2[C@H](C(=O)O)C12CC(=O)[C@@](CO)(CC[C@H]13)C2`, the TGI in the experiment with DLD-1 colon, with DMS 273 small cell lung, with HOP-18 NSCLC, in the experiment on KM20L2 colon, with M19-MEL melanoma and in the experiment on RXF-631 renal was more than 100 µM in each case. Further, the TGI in the experiment with SNB-78 CNS and with XF 498 CNS was more than 100 µM in each case.

As for `O=C(/C(=C/c1ccccc1)c1ccccc1)N1c2ccccc2CC1c1c[nH]c2ccccc12` (centres undefined), the TGI in the experiment with DLD-1 colon, with DMS 114 small cell lung, in the experiment on DMS 273 small cell lung, in the experiment on KM20L2 colon, with M19-MEL melanoma and in the experiment with SNB-78 CNS was more than 100 µM throughout. Further, the TGI in the experiment with XF 498 CNS came out at 8.95 µM.

Turning to `C#CCN(C)C(=O)N(CC#C)N=O`, the TGI with DLD-1 colon, with DMS 114 small cell lung, in the experiment on DMS 273 small cell lung, with HOP-18 NSCLC, in the experiment on KM20L2 colon and in the experiment with M19-MEL melanoma was more than 100 µM throughout. The TGI in the experiment on RXF-631 renal and with SNB-78 CNS was more than 100 µM each time.

`COC(=O)C1CC(C(=O)OC)c2nc3cc(C)c(C)cc3nc21` (centres undefined): the TGI in the experiment on DLD-1 colon, with DMS 114 small cell lung, in the experiment on DMS 273 small cell lung, in the experiment with HOP-18 NSCLC, with KM20L2 colon and with M19-MEL melanoma was more than 100 µM in each case. In addition, the TGI with RXF-631 renal, in the experiment with SNB-78 CNS and in the experiment on XF 498 CNS was more than 100 µM in each case.

Turning to `C[N+](C)(C)CC1CCCC/C1=N\O` (centres undefined), the TGI in the experiment on DLD-1 colon, in the experiment with DMS 114 small cell lung, in the experiment with DMS 273 small cell lung, with HOP-18 NSCLC, in the experiment with KM20L2 colon and with RXF-631 renal was more than 100 µM throughout. In addition, the TGI in the experiment with SNB-78 CNS was more than 100 µM.

`C[n+]1c(N)n(C(=O)OCc2ccccc2)c(=O)c2c1ncn2C(=O)OCc1ccccc1`: the TGI with DLD-1 colon, with DMS 114 small cell lung, in the experiment with DMS 273 small cell lung, in the experiment on HOP-18 NSCLC, with KM20L2 colon and with M19-MEL melanoma was more than 100 µM throughout. For the same compound, the TGI in the experiment on SNB-78 CNS is more than 100 µM.

`Cn1ccnc1C[N-]Cc1nccn1C.O=[N+]([O-])[O-].O=[N+]([O-])[O-].[Cu+2]`: the GI50 with DLD-1 colon is more than 100 µM; in the experiment with DMS 114 small cell lung, more than 100 µM; with DMS 273 small cell lung, 73.8 µM; in the experiment with HOP-18 NSCLC it was more than 100 µM; with KM20L2 colon, more than 100 µM; in the experiment on SNB-78 CNS, more than 100 µM. For the same compound, the TGI in the experiment on DLD-1 colon, in the experiment with DMS 114 small cell lung, in the experiment with DMS 273 small cell lung, in the experiment with HOP-18 NSCLC, in the experiment with KM20L2 colon and in the experiment on SNB-78 CNS was more than 100 µM throughout.

Take `CN(C)CCNc1nc(-c2cccs2)cc(-c2cccs2)n1`: the TGI came to 55.1 µM in the experiment on DLD-1 colon; 33.6 µM with DMS 114 small cell lung; 24.4 µM in the experiment with DMS 273 small cell lung; 34.1 µM in the experiment on SNB-78 CNS; 12.1 µM in the experiment on XF 498 CNS.

For the compound `COc1ccc(C2=NOP(c3ccccc3)(c3ccccc3)(c3ccccc3)C2)cc1`, the TGI is more than 61.7 µM in the experiment on DLD-1 colon; 26.2 µM in the experiment with DMS 114 small cell lung; more than 47.6 µM in the experiment with DMS 273 small cell lung; more than 100 µM with HOP-18 NSCLC; more than 76.2 µM in the experiment with KM20L2 colon; 57.7 µM in the experiment on M19-MEL melanoma. The results for the TGI with RXF-631 renal, in the experiment with SNB-78 CNS and in the experiment with XF 498 CNS were more than 100 µM, more than 100 µM and 49.7 µM, respectively.

As for `Cc1ccc(NC(=O)CCC(=O)C(C#N)c2ccccc2)cc1C` (centres undefined), the TGI in the experiment with DLD-1 colon, with DMS 114 small cell lung, with DMS 273 small cell lung, with HOP-18 NSCLC, in the experiment on KM20L2 colon and with RXF-631 renal was more than 100 µM each time. In addition, the TGI in the experiment on SNB-78 CNS and with XF 498 CNS was more than 100 µM in each case.

Regarding `COc1ccc2nc3cccc(C(=O)NCCN(C)C)c3nc2c1`, the TGI in the experiment on DLD-1 colon is 5.12 µM; with DMS 114 small cell lung, 3.45 µM; in the experiment on DMS 273 small cell lung, more than 100 µM; with HOP-18 NSCLC it was more than 21.8 µM; in the experiment on KM20L2 colon it was 6.46 µM; in the experiment on M19-MEL melanoma, 3.5 µM. Besides, the TGI is more than 100 µM in the experiment with RXF-631 renal, 9.01 µM with SNB-78 CNS and 0.696 µM with XF 498 CNS.

Take `CCOC(=O)/N=c1/nc(N(C)C)ss1`: the TGI in the experiment on DLD-1 colon, in the experiment with DMS 114 small cell lung, with DMS 273 small cell lung, in the experiment on HOP-18 NSCLC, with KM20L2 colon and with RXF-631 renal was more than 100 µM in each case. Besides, the TGI in the experiment on SNB-78 CNS and in the experiment with XF 498 CNS was more than 100 µM throughout.

For `NCP(=O)(O)OCC(=O)O`, the TGI with DLD-1 colon, with DMS 114 small cell lung, with DMS 273 small cell lung, in the experiment on HOP-18 NSCLC, in the experiment on SNB-78 CNS and in the experiment with XF 498 CNS was more than 100 µM in each case.

As for `Nc1ccc(C(=O)N/C(=C\c2cccc([N+](=O)[O-])c2)c2nc3c4c(ccc3[nH]2)C(=O)c2ccccc2C4=O)cc1`, the TGI with DLD-1 colon, in the experiment on DMS 114 small cell lung, in the experiment with DMS 273 small cell lung, in the experiment on HOP-18 NSCLC, in the experiment on KM20L2 colon and in the experiment with M19-MEL melanoma was more than 100 µM each time. Further, the TGI with RXF-631 renal, in the experiment on SNB-78 CNS and in the experiment on XF 498 CNS was more than 100 µM in each case.

Consider `Nc1c(-c2nc3ccccc3[nH]2)sc(=S)n1-c1ccc(Cl)cc1`, for which the TGI with DLD-1 colon was more than 100 µM; with DMS 114 small cell lung it was 42 µM; in the experiment on DMS 273 small cell lung, 39.8 µM; with HOP-18 NSCLC, 38.6 µM; in the experiment on M19-MEL melanoma, 84.2 µM; in the experiment with SNB-78 CNS, 66.3 µM. In the experiment with XF 498 CNS, this compound displayed a TGI of 52.4 µM.

For the compound `CCOC(=O)NC(=O)c1c[nH]c(=O)[nH]c1=O`, the TGI with DLD-1 colon, in the experiment with DMS 114 small cell lung, in the experiment with DMS 273 small cell lung, with HOP-18 NSCLC, in the experiment on KM20L2 colon and with M19-MEL melanoma was more than 100 µM in each case. Further, the TGI in the experiment on RXF-631 renal, in the experiment on SNB-78 CNS and with XF 498 CNS was more than 100 µM in each case.

Turning to `C1C[OH+]CC[OH+]CC[OH+]CC[OH+]CC[OH+]CC[OH+]1.[Cl-].[Nb+5]`, in the experiment with KM20L2 colon, the GI50 was more than 100 µM and the TGI is more than 100 µM.

On to `CN(C)CC1CCCC/C1=N/OC(=O)c1ccc(Cl)c(Cl)c1` (centres undefined), for which the TGI with DLD-1 colon, in the experiment with DMS 114 small cell lung, in the experiment on DMS 273 small cell lung, in the experiment on HOP-18 NSCLC, in the experiment on KM20L2 colon and in the experiment on M19-MEL melanoma was more than 100 µM in each case. Besides, the TGI in the experiment with RXF-631 renal was more than 100 µM.

Consider `COc1cc(C2c3cc4c(cc3[C@@H](Nc3ccc(N)cc3)C3COC(=O)[C@H]23)OCO4)cc(OC)c1O` (some centres undefined), for which the TGI with DLD-1 colon amounted to 22.2 µM; with DMS 114 small cell lung it was 8.77 µM; in the experiment with DMS 273 small cell lung, 5.39 µM; in the experiment on HOP-18 NSCLC, 40.4 µM; in the experiment on KM20L2 colon, 21.4 µM; in the experiment on M19-MEL melanoma it was 23.7 µM. Besides, the TGI in the experiment on SNB-78 CNS stood at 60.5 µM; in the experiment on XF 498 CNS it was 13.6 µM. Besides, the GI50 in the experiment with DMS 114 small cell lung is 0.911 µM; with HOP-18 NSCLC, 0.944 µM; with M19-MEL melanoma, 0.99 µM; in the experiment on XF 498 CNS it was 0.716 µM.

Consider `Nc1nc(N)c(-c2ccccc2)c(CCC(=O)Nc2ccc(Cl)cc2)n1`, for which the TGI with DLD-1 colon, in the experiment with DMS 273 small cell lung, with HOP-18 NSCLC, with KM20L2 colon, with M19-MEL melanoma and in the experiment on SNB-78 CNS was more than 100 µM each time.

Turning to `CC1=C(C(=O)Nc2ccccc2)C(c2ccc(C(C)C)cc2)C(C(=O)Nc2ccccc2)=C(C)N1`, the TGI was more than 100 µM in the experiment with DLD-1 colon; 47.5 µM in the experiment with DMS 114 small cell lung; 49.3 µM with HOP-18 NSCLC; 31.7 µM in the experiment with KM20L2 colon; 35.6 µM in the experiment on M19-MEL melanoma; more than 85.1 µM in the experiment on RXF-631 renal. For the same compound, the TGI in the experiment on SNB-78 CNS was more than 100 µM; with XF 498 CNS, 27 µM.

Consider `CC(C)(C)OC(=O)N1N=NC2C3OC(CC3=O)C21` (centres undefined), for which the TGI in the experiment with DLD-1 colon, in the experiment with DMS 114 small cell lung, with DMS 273 small cell lung, in the experiment with HOP-18 NSCLC, in the experiment on KM20L2 colon and with RXF-631 renal was more than 100 µM in each case. Moreover, the TGI with SNB-78 CNS was more than 100 µM.

With `COc1ccc(C(=O)O/N=C2/CCC/C2=C\c2ccccc2)cc1`, the TGI in the experiment on DLD-1 colon, with DMS 114 small cell lung, in the experiment with DMS 273 small cell lung, with HOP-18 NSCLC, in the experiment with KM20L2 colon and with M19-MEL melanoma was more than 100 µM throughout. Also, the TGI with RXF-631 renal, in the experiment on SNB-78 CNS and with XF 498 CNS was more than 100 µM throughout.

For the origin of these results see PubChem BioAssay (NCI).
